# Laboratory results: US20220265629A1, “TREATMENT OF SYSTOLIC DYSFUNCTION AND HEART FAILURE WITH REDUCED EJECTION FRACTION WITH THE COMPOUND (R)-4-(1-((3-(DIFLUOROMETHYL)-1-METHYL-1H-PYRAZOL-4-YL)SULFONYL)-1-FLUOROETHYL)-N-(ISOXAZOL-3-YL)PIPERIDINE-1-CARBOXAMIDE” (MyoKardia, Inc., priority 2019, published 2022)
# Read-outs that look alike come from different tables or passages of the source.
# Experiment: Food effect cross-over study, 200 mg (25 mg tablets), healthy volunteers: plasma pharmacokinetics
# Assay type: in vivo, human
# Conditions: for concentration at 36 h / concentration at 48 h / concentration at 72 h / AUC(0-inf) / AUC(0-t) / Cmax / Tmax / MRT / half-life: human, plasma; for concentration at 36 h: 36 hours postdose; for concentration at 48 h: 48 hours postdose; for concentration at 72 h: 72 hours postdose
# Description: This example describes a clinical study for establishing, in healthy volunteers, the effect of a high fat, high caloric meal on the PK profile of Compound I, as compared to administration of the drug in the fasted state. The study also was intended to determine the safety and tolerability after a single oral dose of Compound I in the fed and fasted state in healthy volunteers. The measurements of PK, PD, and other clinical parameters were done as described in Example 1 above.
# This study was an open-label, randomized, two-period cross-over study in healthy volunteers aged 18-55 years. Subjects were screened up to 28 days before the first treatment period. Subjects were admitted to the clinical site on Day −1 (the day before dosing) of Period 1. Approximately half of the subjects randomly received a single dose of Compound I on Day 1 of the first treatment period after the ingestion of a high fat, high caloric breakfast, and the remainder were closed in the fasted state. Any subject with a preclose resting HR≥95 beats per minute (bpm) was considered ineligible and was not treated. Any subjects with an acute gastrointestinal disorder which could impact drug/food absorption (e.g., vomiting, diarrhea) were rescheduled. Subjects were confined to the clinic until Day 4, and discharged after the 72-hour postclose PK and laboratory samples and vital signs were obtained. After a washout between dosing from 7 to 10 days (or, after consultation with the Investigator, up to 21 days after initial dosing if the subject was unable to attend within the 7 to 10-day window), the subject was admitted for Period 2. The sequence of fed/fasted versus fasted/fed periods was randomized. Subjects returned after the second treatment period for a safety follow-up visit on Day 7 (±1 day).
# In both treatment periods, Compound I was administered with 240 mL of water. In the fasted state, the subjects fasted for 10 hours before and for 4 hours after the administration of Compound I. Water could have been ingested up to 1 hour before and after 1 hour post dosing. In the fed state, the subjects fasted for 10 hours before and for 4 hours after the ingestion of the meal, but could have ingested water up to 1 hour before and 1 hour after dosing. In the fed state, the subjects started ingesting the high fat, high caloric meal within 30 minutes prior to Compound I administration and finished the meal within 30 minutes. The meal contained approximately 800 to 1000 calories with about 50% of the calories from fat. The meal consisted of approximately 150 calories from protein, 250 calories from carbohydrate, and 500-600 calories from fat. An example of the meal was a breakfast consisting of two eggs fried in butter, two strips of bacon, two slices of buttered toast, 4 ounces of hash brown potatoes, and 8 ounces of whole milk.
# Each subject received two oral doses of 200 mg of Compound I formulated as 25 mg tablets (8 tablets) in a randomized, cross-over fashion, once in the fasted state and the other time after the ingestion of a high fat, high caloric breakfast. There was a washout of between 7 and 21 days between the administrations of the two closes. The Compound I drug substance was a crystalline, free-base, synthetic molecule with a molecular weight of 435.4.
# Plasma drug concentrations were measured as described in Example 1 above. Blood samples to measure Compound I plasma concentration were collected at various time points, including on Day 1 preclose (1 hour prior to dosing) and at 1 (±5 min), 2 (±5 min), 3 (±5 min), 4 (+10 min), 5 (+10 min), 6 (+10 min), 9 (+20 min), 12 (+20 min), 18 (+30 min), 24 (+30 min), 36 (+30 min), 48 (+30 min), and 72 (+30 min) hours postclose on both treatment periods.
# To assess the effect of food on the PK of Compound I, the two one-sided t-test procedure was used to construct 90% CI around the geometric mean ratios (fed/fasted) of plasma AUCinf, AUClast, and Cmax. […]
# [1] = oral, Fed, read-out: Plasma concentration, Geometric Mean
# [2] = oral, Fed, read-out: Plasma concentration, Mean
# [3] = oral, Fed, read-out: Plasma concentration, Median
# [4] = oral, Fasted, read-out: Plasma concentration, Geometric Mean
# [5] = oral, Fasted, read-out: Plasma concentration, Mean
# [6] = oral, Fasted, read-out: Plasma concentration, Median
# [7] = subjects who completed both fasted and fed periods (N = 9)
# [8] = subjects who completed both periods (N = 9)
smiles,measurement,setting,value
"Cn1cc(S(=O)(=O)[C@@](C)(F)C2CCN(C(=O)Nc3ccon3)CC2)c(C(F)F)n1 [Compound I, (R)-4-(1-((3-(difluoromethyl)-1-methyl-1H-pyrazol-4-yl)sulfonyl)-1-fluoroethyl)-N-(isoxazol-3-yl)piperidine-1-carboxamide]",concentration at 36 h,[1],0.834 µg/mL
same,concentration at 36 h,[2],0.881 µg/mL
same,concentration at 36 h,[3],0.905 µg/mL
same,concentration at 48 h,[4],0.306 µg/mL
same,concentration at 48 h,[5],0.331 µg/mL
same,concentration at 48 h,[6],0.347 µg/mL
same,concentration at 48 h,[1],0.476 µg/mL
same,concentration at 48 h,[2],0.525 µg/mL
same,concentration at 48 h,[3],0.549 µg/mL
same,concentration at 72 h,[4],0.0932 µg/mL
same,concentration at 72 h,[5],0.108 µg/mL
same,concentration at 72 h,[6],0.112 µg/mL
same,concentration at 72 h,[1],0.129 µg/mL
same,concentration at 72 h,[2],0.161 µg/mL
same,concentration at 72 h,[3],0.143 µg/mL
same,AUC(0-inf),"oral, N = 11, read-out: AUCinf, Fasted LSGM",59.4 µg·h/mL
same,AUC(0-inf),"oral, N = 11, read-out: AUCinf, Fed LSGM",91.6 µg·h/mL
same,AUC(0-t),"oral, N = 11, read-out: AUClast, Fasted LSGM",57.4 µg·h/mL
same,AUC(0-t),"oral, N = 11, read-out: AUClast, Fed LSGM",88.4 µg·h/mL
same,Cmax,"oral, N = 11, read-out: Cmax, Fasted LSGM",2.3 µg/mL
same,Cmax,"oral, N = 11, read-out: Cmax, Fed LSGM",3.64 µg/mL
same,Cmax,"oral, fasted state, read-out: Cmax of mean plasma concentrations",2.31 µg/mL
same,Cmax,"oral, fasted state, read-out: Cmax, Mean (SD)",2.35 µg/mL
same,Tmax,"oral, fasted state, read-out: Tmax, Median (range)",5 h
same,Tmax,"oral, fasted state, read-out: tmax of mean plasma concentrations",5 h
same,Cmax,"oral, fed state, read-out: Cmax of mean plasma concentrations",3.2 µg/mL
same,Cmax,"oral, fed state, read-out: Cmax, Mean (SD)",3.68 µg/mL
same,Tmax,"oral, fed state, read-out: Tmax, Median (range)",5.5 h
same,Tmax,"oral, fed state, read-out: tmax of mean plasma concentrations",6 h
same,AUC(0-inf),"oral, subjects who completed both fasted and fed periods (N = 9), read-out: AUCinf, Fasted LSGM",61.1 µg·h/mL
same,AUC(0-inf),"oral, subjects who completed both fasted and fed periods (N = 9), read-out: AUCinf, Fed LSGM",93.9 µg·h/mL
same,AUC(0-t),"oral, subjects who completed both fasted and fed periods (N = 9), read-out: AUClast, Fasted LSGM",59 µg·h/mL
same,AUC(0-t),"oral, subjects who completed both fasted and fed periods (N = 9), read-out: AUClast, Fed LSGM",90.5 µg·h/mL
same,Cmax,"oral, subjects who completed both fasted and fed periods (N = 9), read-out: Cmax, Fasted LSGM",2.37 µg/mL
same,Cmax,"oral, subjects who completed both fasted and fed periods (N = 9), read-out: Cmax, Fed LSGM",3.7 µg/mL
same,AUC(0-inf),"po, single 200 mg oral dose, Fasted (N = 10), read-out: AUCinf, Geometric Mean",61 µg·h/mL
same,AUC(0-inf),"po, single 200 mg oral dose, Fasted (N = 10), read-out: AUCinf, Mean",62.6 µg·h/mL
same,AUC(0-inf),"po, single 200 mg oral dose, Fasted (N = 10), read-out: AUCinf, Median",66.7 µg·h/mL
same,AUC(0-t),"po, single 200 mg oral dose, Fasted (N = 10), read-out: AUClast, Geometric Mean",58.8 µg·h/mL
same,AUC(0-t),"po, single 200 mg oral dose, Fasted (N = 10), read-out: AUClast, Mean",60.2 µg·h/mL
same,AUC(0-t),"po, single 200 mg oral dose, Fasted (N = 10), read-out: AUClast, Median",64.3 µg·h/mL
same,Cmax,"po, single 200 mg oral dose, Fasted (N = 10), read-out: Cmax, Geometric Mean",2.32 µg/mL
same,Cmax,"po, single 200 mg oral dose, Fasted (N = 10), read-out: Cmax, Mean",2.35 µg/mL
same,Cmax,"po, single 200 mg oral dose, Fasted (N = 10), read-out: Cmax, Median",2.41 µg/mL
same,MRT,"po, single 200 mg oral dose, Fasted (N = 10), read-out: MRT, Geometric Mean",22.3 h
same,MRT,"po, single 200 mg oral dose, Fasted (N = 10), read-out: MRT, Mean",22.6 h
same,MRT,"po, single 200 mg oral dose, Fasted (N = 10), read-out: MRT, Median",23.9 h
same,half-life,"po, single 200 mg oral dose, Fasted (N = 10), read-out: T1/2, z, Geometric Mean (converted)",14.1 h
same,half-life,"po, single 200 mg oral dose, Fasted (N = 10), read-out: T1/2, z, Mean (converted)",14.3 h
same,half-life,"po, single 200 mg oral dose, Fasted (N = 10), read-out: T1/2, z, Median (converted)",14.9 h
same,Tmax,"po, single 200 mg oral dose, Fasted (N = 10), read-out: Tmax, Geometric Mean",4.58 h
same,Tmax,"po, single 200 mg oral dose, Fasted (N = 10), read-out: Tmax, Mean",4.7 h
same,Tmax,"po, single 200 mg oral dose, Fasted (N = 10), read-out: Tmax, Median",5 h
same,AUC(0-inf),"po, single 200 mg oral dose, Fed (N = 10), read-out: AUCinf, Geometric Mean",91.6 µg·h/mL
same,AUC(0-inf),"po, single 200 mg oral dose, Fed (N = 10), read-out: AUCinf, Mean",93.5 µg·h/mL
same,AUC(0-inf),"po, single 200 mg oral dose, Fed (N = 10), read-out: AUCinf, Median",94 µg·h/mL
same,AUC(0-t),"po, single 200 mg oral dose, Fed (N = 10), read-out: AUClast, Geometric Mean",88.4 µg·h/mL
same,AUC(0-t),"po, single 200 mg oral dose, Fed (N = 10), read-out: AUClast, Mean",89.9 µg·h/mL
same,AUC(0-t),"po, single 200 mg oral dose, Fed (N = 10), read-out: AUClast, Median",89.3 µg·h/mL
same,Cmax,"po, single 200 mg oral dose, Fed (N = 10), read-out: Cmax, Geometric Mean",3.64 µg/mL
same,Cmax,"po, single 200 mg oral dose, Fed (N = 10), read-out: Cmax, Mean",3.68 µg/mL
same,Cmax,"po, single 200 mg oral dose, Fed (N = 10), read-out: Cmax, Median",3.77 µg/mL
same,MRT,"po, single 200 mg oral dose, Fed (N = 10), read-out: MRT, Geometric Mean",22.6 h
same,MRT,"po, single 200 mg oral dose, Fed (N = 10), read-out: MRT, Mean",23.1 h
same,MRT,"po, single 200 mg oral dose, Fed (N = 10), read-out: MRT, Median",23.6 h
same,half-life,"po, single 200 mg oral dose, Fed (N = 10), read-out: T1/2, z, Geometric Mean (converted)",13.6 h
same,half-life,"po, single 200 mg oral dose, Fed (N = 10), read-out: T1/2, z, Mean (converted)",13.8 h
same,half-life,"po, single 200 mg oral dose, Fed (N = 10), read-out: T1/2, z, Median (converted)",13.5 h
same,Tmax,"po, single 200 mg oral dose, Fed (N = 10), read-out: Tmax, Geometric Mean",6.02 h
same,Tmax,"po, single 200 mg oral dose, Fed (N = 10), read-out: Tmax, Mean",6.9 h
same,Tmax,"po, single 200 mg oral dose, Fed (N = 10), read-out: Tmax, Median",5.5 h
same,"AUCinf, Geometric Mean Ratio - Fed/Fasted (% of Reference)",[7],153.63%
same,"AUClast, Geometric Mean Ratio - Fed/Fasted (% of Reference)",[7],153.20%
same,"Cmax, Geometric Mean Ratio - Fed/Fasted (% of Reference)",[7],156.43%
same,"Cmax, geometric mean ratio (fed/fasted)",[8],156.43%
same,"increases for AUCinf, AUC0-t and Cmax in the fed state",[8],approximately 50%
